The source of these data is US20080021030A1, “Substituted Pyrazoles As Ppar Agonists” (priority 2003, published 2008).

Each structure is given as a SMILES string. Bounds are passed on as bounds.

For one series, the target named is T1, hPPAR gamma (Homo sapiens, UniProt P37231).
T1 construct: expressed in transfected cells; host or cells: CV-1 cells
T1 sequence (P37231 238-503 limits assumed): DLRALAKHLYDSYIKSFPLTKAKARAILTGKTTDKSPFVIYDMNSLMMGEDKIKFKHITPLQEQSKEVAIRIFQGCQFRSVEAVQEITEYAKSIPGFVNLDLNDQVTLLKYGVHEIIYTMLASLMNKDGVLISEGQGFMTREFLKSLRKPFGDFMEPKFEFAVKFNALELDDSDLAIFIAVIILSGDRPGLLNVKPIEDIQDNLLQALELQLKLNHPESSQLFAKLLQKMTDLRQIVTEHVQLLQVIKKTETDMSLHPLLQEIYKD
The series can be described thus: Transient transfection (transactivation) assay in CV-1 cells, GAL4-PPAR LBD chimera, SPAP reporter. The format is cell-based. The settings on record: read-out: EC50 μM HPPARγ. The source says: Compounds were screened for functional potency in transient transfection assays in CV-1 cells for their ability to activate the PPAR subtypes (transactivation assay). A previously established chimeric receptor system was utilized to allow comparison of the relative transcriptional activity of the receptor subtypes on the same target gene and to prevent endogenous receptor activation from complicating the interpretation of results. […] The ligand binding domains for murine and human PPAR alpha, PPAR gamma, and PPAR delta were each fused to the yeast transcription factor GAL4 DNA binding domain. CV-1 cells were transiently transfected with expression vectors for the respective PPAR chimera along with a reporter construct containing five copies of the GAL4 DNA binding site driving expression of secreted placental alkaline phosphatase (SPAP) and beta-galactosidase. After 16 h, the medium was exchanged to DME medium supplemented with 10% delipidated fetal calf serum and the test compound at the appropriate concentration. After an additional 24 h, cell extracts were prepared and assayed for alkaline phosphatase and β-galactosidase activity.

The target of another series is T2, hPPAR delta (Homo sapiens, UniProt Q03181).
T2 construct: expressed in transfected cells; host or cells: CV-1 cells
T2 sequence (Q03181 211-439 limits assumed): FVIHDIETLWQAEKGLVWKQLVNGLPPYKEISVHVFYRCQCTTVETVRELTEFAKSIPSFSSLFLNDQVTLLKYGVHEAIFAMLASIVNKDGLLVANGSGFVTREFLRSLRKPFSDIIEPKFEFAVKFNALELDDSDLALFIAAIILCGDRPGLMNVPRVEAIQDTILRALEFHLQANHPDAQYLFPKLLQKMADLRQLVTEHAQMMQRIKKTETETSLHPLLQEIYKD
Put plainly: Transient transfection (transactivation) assay in CV-1 cells, GAL4-PPAR LBD chimera, SPAP reporter. The format is cell-based. The settings on record: read-out: EC50 μM HPPARδ. The source says: (§1) Compounds were screened for functional potency in transient transfection assays in CV-1 cells for their ability to activate the PPAR subtypes (transactivation assay). A previously established chimeric receptor system was utilized to allow comparison of the relative transcriptional activity of the receptor subtypes on the same target gene and to prevent endogenous receptor activation from complicating the interpretation of results. See, for example, Lehmann, J. M.; Moore, L. B.; Smith-Oliver, T. A.; Wilkison, W. O.; Willson, T. M.; Kliewer, S. A., An antidiabetic thiazolidinedione is a high affinity ligand for peroxisome proliferator-activated receptor gamma (PPARgamma), J. Biol. Chem., 270, 12953-6 (1995). The ligand binding domains for murine and human PPAR alpha, PPAR gamma, and PPAR delta were each fused to the yeast transcription factor GAL4 DNA binding domain. CV-1 cells were transiently transfected with expression vectors for the respective PPAR chimera along with a reporter construct containing five copies of the GAL4 DNA binding site driving expression of secreted placental alkaline phosphatase (SPAP) and beta-galactosidase. After 16 h, the medium was exchanged to DME medium supplemented with 10% delipidated fetal calf serum and the test compound at the appropriate concentration. After an additional 24 h, cell extracts were prepared and assayed for alkaline phosphatase and β-galactosidase activity. Alkaline phosphatase activity was corrected for transfection efficiency using the beta-galactosidase activity as an internal standard (see, for example, Kliewer, S. A., et. al. Cell 83, 813-819 (1995)). Rosiglitazone (BRL 49653) was used as a positive control in the hPPAR gamma assay. The positive control in the hPPAR alpha assays was 2-4-[2-(3-[4-fluorophenyl]-1-heptylureido)ethyl]-phenoxy-(2-methyl propionic acid (WO 97/36579). The positive control for PPAR delta assays was 2-{2-methyl-4-[({4-methyl-2-{trifluoromethyl)phenyl]-1,3-thiazol-5-yl}methyl)sulfanyl]phenoxy}acetic acid (WO 01/00603). The positive control was (5-{4-[2-(Methyl-pyridin-2-yl-amino)-ethoxy]-benzyl}-thiazolidine-2,4-dione (J. Med. Chem. 1994, 37(23), 3977), for PPAR gamma.
(§2) Activities in three hPPAR subtypes are reported in the table and are expressed in micromolar.

In another series the target is T3, hPPAR alpha (Homo sapiens, UniProt Q07869).
T3 construct: expressed in transfected cells; host or cells: CV-1 cells
T3 sequence (Q07869 239-466 limits assumed): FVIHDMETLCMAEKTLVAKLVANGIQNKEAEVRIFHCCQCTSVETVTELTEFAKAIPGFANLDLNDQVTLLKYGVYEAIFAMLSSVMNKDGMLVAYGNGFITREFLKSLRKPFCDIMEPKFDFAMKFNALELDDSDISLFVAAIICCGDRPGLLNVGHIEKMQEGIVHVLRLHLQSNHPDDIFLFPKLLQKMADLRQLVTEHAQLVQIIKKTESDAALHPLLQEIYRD
The description is as above. The format is cell-based. As to conditions: read-out: EC50 μM HPPARα.
Text: as §1, §2

As to `Cc1cc(CNC(=O)c2cc(-c3ccc(-c4ccccc4C)cc3)nn2C)ccc1OC(C)(C)C(=O)O` [Example 36, 2-methyl-2-{2-methyl-4-[({[1-methyl-3-(2′-methylbiphenyl-4-yl)-1H-pyrazol-5-yl]carbonyl}amino)methyl]phenoxy}propanoic acid], the melting point lay in the range of 90 to 100 °C. The EC50 at hPPAR gamma was found to be 0.037 µM. Further, the EC50 on hPPAR delta turned out to be 5.17 µM. In addition, at hPPAR alpha, the EC50 came to 0.176 µM.
The corresponding values for `COCCn1nc(C(=O)NCc2ccc(OC(C)(C)C(=O)O)c(C)c2)cc1-c1ccc(C(C)(C)C)cc1` [Example 52, 2-[(4-{[({5-[4-(1,1-dimethylethyl)phenyl]-1-[2-(methyloxy)ethyl]-1H-pyrazol-3-yl}carbonyl)amino]methyl}-2-methylphenyl)oxy]-2-methylpropanoic acid] are 65 °C, 0.478 µM, > 25 µM and 0.042 µM.
In the case of `Cc1cc(CNC(=O)c2cc(-c3ccc(C(C)(C)C)cc3)nn2C)cc(C)c1OC(C)(C)C(=O)O` [Example 26, 2-{4-[({[3-(4-tert-butylphenyl)-1-methyl-1H-pyrazol-5-yl]carbonyl}amino)methyl]-2,6-dimethylphenoxy}-2-methylpropanoic acid], the melting point is > 122 °C. The EC50 on hPPAR gamma was determined as 0.016 µM. In addition, the EC50 at hPPAR delta worked out at 1 µM. The EC50 on hPPAR alpha turned out to be 0.003 µM.
The corresponding values for `Cc1cc(CNC(=O)c2cc(-c3ccc(-c4cccs4)cc3)n(C)n2)ccc1OC(C)(C)C(=O)O` [Example 32, 2-methyl-2-[(2-methyl-4-{[({1-methyl-5-[4-(2-thienyl)phenyl]-1H-pyrazol-3-yl}carbonyl)amino]methyl}phenyl)oxy]propanoic acid] are 92 °C, 0.023 µM, > 25 µM and 0.015 µM.
`COCCn1nc(-c2ccc(C(C)(C)C)cc2)cc1C(=O)NCc1ccc(OC(C)(C)C(=O)O)c(C)c1` [Example 48, 2-[(4-{[({3-[4-(1,1-dimethylethyl)phenyl]-1-[2-(methyloxy)ethyl]-1H-pyrazol-5-yl}carbonyl)amino]methyl}-2-methylphenyl)oxy]-2-methylpropanoic acid]: the melting point came to 112 °C. Moreover, the EC50 on hPPAR gamma came to 0.303 µM. In addition, the EC50 on hPPAR delta amounted to 2.05 µM. In addition, the EC50 at hPPAR alpha worked out at 0.066 µM.
The corresponding values for `Cc1cc(CNC(=O)c2cc(-c3ccc(OCc4ccccc4)cc3)nn2C)ccc1OC(C)(C)C(=O)O` [Example 57, 2-methyl-2-{[2-methyl-4-({[(1-methyl-3-{4-[(phenylmethyl)oxy]phenyl}-1H-pyrazol-5-yl)carbonyl]amino}methyl)phenyl]oxy}propanoic acid] are 72 °C, 0.118 µM, > 8 µM and 0.657 µM.
`Cc1cc(CNC(=O)c2cc(-c3ccc(-c4ccoc4)cc3)n(C)n2)ccc1OC(C)(C)C(=O)O` [Example 33, 2-[(4-{[({5-[4-(3-furanyl)phenyl]-1-methyl-1H-pyrazol-3-yl}carbonyl)amino]methyl}-2-methylphenyl)oxy]-2-methylpropanoic acid] returned a melting point of 102 °C. Besides, at hPPAR delta, the EC50 worked out at 1.64 µM. Moreover, the EC50 at hPPAR alpha stood at 0.004 µM.
In turn, `Cc1cc(CNC(=O)c2cc(-c3ccc(CC(C)C)cc3)n(C)n2)cc(Cl)c1OC(C)(C)C(=O)O` [Example 27, 2-{2-chloro-4-[({[5-(4-isobutylphenyl)-1-methyl-1H-pyrazol-3-yl]carbonyl}amino)methyl]-6-methylphenoxy}-2-methylpropanoic acid] gave a melting point of 75 to 80 °C. The EC50 at hPPAR gamma stood at 0.031 µM. Moreover, the concentration for a half-maximal effect (EC50) at hPPAR delta was found to be 0.206 µM. For the same molecule, on hPPAR alpha, the EC50 was < 0.001 µM.
The molecule `Cc1cc(CNC(=O)c2cc(-c3ccc(-c4ccco4)cc3)n(C)n2)ccc1OC(C)(C)C(=O)O` [Example 35, 2-[(4-{[({5-[4-(2-furanyl)phenyl]-1-methyl-1H-prazol-3-yl}carbonyl)amino]methyl}-2-methylphenyl)oxy]-2-methylpropanoic acid] showed a melting point of 96 °C. Further, the EC50 on hPPAR gamma is 0.054 µM. Further, the EC50 on hPPAR delta was > 25 µM. On hPPAR alpha, the EC50 is 0.024 µM.
As to `Cc1cc(CNC(=O)Cc2cc(-c3ccc(C(C)(C)C)cc3)n(C)n2)ccc1OC(C)(C)C(=O)O` [Example 44, 2-[(4-{[({5-[4-(1,1-dimethylethyl)phenyl]-1-methyl-1H-pyrazol-3-yl}acetyl)amino]methyl}-2-methylphenyl)oxy]-2-methylpropanoic acid], the EC50 was 0.006 µM on hPPAR gamma, > 25 µM at hPPAR delta and 1.3 µM at hPPAR alpha.
The corresponding values for `Cc1cc(CNC(=O)c2cc(-c3ccc(C(C)(C)C)cc3)nn2Cc2ccccc2)ccc1OC(C)(C)C(=O)O` [Example 61, 2-({4-[({[3-[4-(1,1-dimethylethyl)phenyl]-1-(phenylmethyl)-1H-pyrazol-5-yl]carbonyl}amino)methyl]-2-methylphenyl}oxy)-2-methylpropanoic acid] are 0.147 µM, 2.42 µM and 0.115 µM.
Take `Cc1cc(CNC(=O)c2cc(-c3ccc(N4CCOCC4)cc3)nn2C)ccc1OC(C)(C)C(=O)O` [Example 39, 2-methyl-2-[(2-methyl-4-{[({1-methyl-3-[4-(4-morpholinyl)phenyl]-1H-pyrazol-5-yl}carbonyl)amino]methyl}phenyl)oxy]propanoic acid]: the EC50 at hPPAR gamma was 1.04 µM; on hPPAR delta, > 25 µM; at hPPAR alpha it was 1.06 µM.
The corresponding values for `Cc1cc(CNC(=O)c2cc(-c3cccc(N4CCCCC4)c3)n(C)n2)ccc1OC(C)(C)C(=O)O` [Example 40, 2-methyl-2-[(2-methyl-4-{[({1-methyl-5-[3-(1-piperidinyl)phenyl]-1H-pyrazol-3-yl}carbonyl)amino]methyl}phenyl)oxy]propanoic acid] are 0.187 µM, 5.59 µM and 0.293 µM.
The corresponding values for `Cc1cc(CNC(=O)c2cc(-c3ccc(N4CCCC4)cc3)n(C)n2)ccc1OC(C)(C)C(=O)O` [Example 20, 2-methyl-2-[(2-methyl-4-{[({1-methyl-5-[4-(1-pyrrolidinyl)phenyl]-1H-pyrazol-3-yl}carbonyl)amino]methyl}phenyl)oxy]propanoic acid] are 0.02 µM, 1.06 µM and 0.076 µM.
On to `Cc1cc(CNC(=O)c2cc(-c3ccc(-c4ccncc4)cc3)n(C)n2)ccc1OC(C)(C)C(=O)O` [Example 34, 2-methyl-2-[(2-methyl-4-{[({1-methyl-5-[4-(4-pyridinyl)phenyl]-1H-pyrazol-3-yl}carbonyl)amino]methyl}phenyl)oxy]propanoic acid], for which the melting point is 264 °C (dec.). The EC50 on hPPAR delta was > 25 µM. Moreover, on hPPAR alpha, the EC50 stood at 0.734 µM.
